pIC50: −log10 of the molar value. Where a name gives a salt, the structure may show the parent alone.
Tests used:
[1] = target: catalytic domain of human PARP14 (Homo sapiens (Human), UniProt Q460N5); assay: Enzymatic assay for inhibition of PARP14 (DELFIA, auto-modification by biotin-NAD); format: biochemical; settings: 50 nM PARP14, 3 μM biotin-NAD
Experimental: An N-terminal His-TEV fusion tag was used to purify the protein from cell lysates. The His-TEV tag was left on the protein for use in the enzymatic assay.
Enzymatic inhibition of PARP14 was measured using a dissociation-enhanced lanthanide fluorescence immunoassay (DELFIA) monitoring the auto-modification of PARP14 by biotinylated nicotinamide adenine dinucleotide (biotin-NAD). 1 μL of a dose response curve of each test compound was spotted in 384-well nickel-coated white microplates (Thermo) using a Mosquito (TTP Labtech). Reactions were performed in a 50 μL volume by adding 40 μL of PARP14 in assay buffer (20 mM HEPES pH==8, 100 mM NaCl, 0.1% bovine serum albumin, 2 mM DTT and 0.002%0 Tween20), incubating with test compound at 25° C. for 30 min, then adding 10 μL of biotin-NAD (Biolog). The final concentrations of PARP14 and biotin-NAD are 50 nM and 3 μM, respectively. Reactions proceeded at 25° C. for 3 h, then were quenched with 5 μL of 10 mM unmodified nicotinamide adenine dinucleotide (Sigma-Aldrich). […] After a 5 min incubation the plate was read on an Envision platereader equipped with a LANCE/DELFIA top mirror (Perkin Elmer) using excitation of 340 nm and emission of 615 nm to measure the amount of Europium present in each well, informing on the amount of biotin-NAD that was transferred in the automodification reaction. […]

4T1 cells = assay: Tumor growth in 4T1 murine syngeneic model; format: in vivo, mouse (BALB/c); settings: 4T1 orthotopic, female BALB/c mice, 500 mg/kg PO BID, study terminated on D20
Description: FIGS. 3A and 4A illustrate that a PARP14 inhibitor (Example 235) reduces tumor growth in the murine syngeneic models (A) 4T1 and (B) LL/2. For the 4T1 study (FIGS. 3A and 3B), female BALB/c mice were inoculated orthotopically in the mammary fat pad with 1×10^5 4T1 cells (ATCC, CRL-2539™) for tumor development. Seven days after tumor inoculation, 16 mice with tumor size ranging from 41-78 mm^3 (average tumor size 56 mm^3) were selected and assigned into 2 groups using stratified randomization with 8 mice in each group based upon their tumor volumes. The treatments were started from the next day post randomization (defined as randomization day DO) and were treated with vehicle (0.5% methylcellulose+0.2% Tween 80), or the compound of Example 235 (500 mg/kg PO BID*21 days). The tumor sizes were measured three times per week during the treatment. The entire study was terminated on D20.
(§1) Statistical significance, calculated using 2 way ANOVA multiple comparisons in which each treatment group was compared to vehicle control, is indicated by an asterisk. Statistics were performed on groups with less than 20% animal loss (D20 for 4T1, D17 for LL/2). Survival benefit was determined for the LL/2 study (FIG. 4B). Individual mice were euthanized once they reached the termination endpoint (TV>2000 mm3). […]

LL/2 cells = assay: Tumor growth and survival in LL/2 murine syngeneic model; format: in vivo, mouse (C57BL/6); settings: LL/2 subcutaneous, female C57BL/6 mice, 500 mg/kg PO BID, study terminated on D21
Description: For the LL/2 study (FIGS. 4A-4C), female C57BL/6 mice were inoculated subcutaneously in the right flank with 5×10^5 LL/2 cells (ATCC, CRL-1642™) for tumor development. Five days after tumor inoculation, 16 mice with tumor size ranging from 37-72 mm^3 (average tumor size 51 mm^3) were selected and assigned into 2 groups using stratified randomization with 8 mice in each group based upon their tumor volumes. The treatments were started from the next day post randomization (defined as randomization day DO) and were treated with vehicle (0.5% methylcellulose+0.2% Tween 80), or the compound of Example 235 (500 mg/kg PO BID*21 days). The tumor sizes were measured three times per week during the treatment. The entire study was terminated on D21.
as §1, with “mm3). The time from treatment initiation to termination was deemed as its survival time and plotted in a Kaplan-Meier survival curve format. Mice remaining at study end date of 21 days were euthanized at day 21 after treatment initiation.” for “mm3).”

catalytic domain of human PARP14, sequence (Q460N5 1611-1801): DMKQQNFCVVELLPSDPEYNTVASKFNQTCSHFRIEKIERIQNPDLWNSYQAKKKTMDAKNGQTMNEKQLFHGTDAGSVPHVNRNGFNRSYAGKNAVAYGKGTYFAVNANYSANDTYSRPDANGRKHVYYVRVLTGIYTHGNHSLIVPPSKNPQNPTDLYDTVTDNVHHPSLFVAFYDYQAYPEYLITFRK

pIC50 [1] | Compound | Tumor growth inhibition versus vehicle group (4T1 cells) [%] | Tumor growth inhibition versus vehicle group (LL/2 cells) [%]
< 5.00 | Cc1cccc2c(=O)[nH]c(CS[C@@H]3CCC[C@H](CN(C)C)C3)nc12 (relative stereo) [Example 72, 2-((((cis)-3-((Dimethylamino)methyl)cyclohexyl)thio)methyl)-8-methyl quinazolin-4(3H)-one Trifluoroacetate] |  | 
> 6.00 | O=c1[nH]c(CSC2CCOCC2)nc2cc(N[C@H]3CCC[C@@H]3F)cc(F)c12 (racemic) [Example 305] |  | 
 | O=c1[nH]c(CS[C@H]2CC[C@H](O)CC2)nc2cc(OCC3CC3)cc(F)c12 [Example 235, 7-(Cyclopropylmethoxy)-5-fluoro-2-(((trans-4-hydroxycyclohexyl)thio)methyl)quinazolin-4(3H)-one] | 31 | 63

Reference: patent US11008308B2, “Quinazolinones as PARP14 inhibitors” (Ribon Therapeutics Inc., priority 2017, dated 2021)
